Results reported in US20110224252A1, “NOVEL IMIDAZOLE DERIVATIVES” (SYNGENTA CROP PROTECTION, INC., priority 2007, published 2011).

How the values were obtained:
Type in all cases: in vivo
Alternaria solani = Alternaria solani / tomato / preventive (action against Alternaria on tomato); conditions: 96 h, spray, tomato plants cv. Roter Gnom, assessed 4 days after inoculation, read-out: inhibit fungal infestation
Procedure: (§1) Alternaria solani/Tomato/Preventive (Action Against Alternaria on Tomato) 4 weeks old tomato plants cv. Roter Gnom are treated with the formulated test compound in a spray chamber. Two days after application tomato plants are inoculated by spraying a spore suspension on the test plants. After an incubation period of 4 days at 22° C./18° C. and 95% r. h. in a greenhouse the disease incidence is assessed.

Uncinula necator = Uncinula necator / grape / preventive (action against powdery mildew on grape); conditions: Erysiphe necator, 168 h, spray, grape seedlings cv. Gutedel, assessed 7 days after inoculation, read-out: inhibit fungal infestation
Procedure: Uncinula necator/Grape/Preventive (Action Against Powdery Mildew on Grape) 5 weeks old grape seedlings cv. Gutedel are treated with the formulated test compound in a spray chamber. One day after application grape plants are inoculated by shaking plants infected with grape powdery mildew above the test plants. After an incubation period of 7 days at 24° C./22° C. and 70% r. h. under a light regime of 14/10 h (light/dark) the disease incidence is assessed.

Botrytis cinerea = Botrytis cinerea / tomato / preventive (action against Botrytis on tomato); conditions: 72 h, spray, tomato plants cv. Roter Gnom, assessed 3 days after inoculation, read-out: inhibit fungal infestation
Procedure: as §1, with “Botrytis cinerea/Tomato/Preventive (Action” for “Alternaria solani/Tomato/Preventive (Action”, “Against Botrytis” for “Against Alternaria”, “of 3” for “of 4”, “at 20°” for “at 22° C./18°”

Septoria tritici = Septoria tritici / wheat / preventive (action against Septoria leaf spot on wheat); conditions: Zymoseptoria tritici, spray, wheat plants cv. Riband, assessed 16-18 days after inoculation, read-out: inhibits fungal infestation
Procedure: Septoria tritici/Wheat/Preventive (Action Against Septoria Leaf Spot on Wheat) 2 weeks old wheat plants cv. Riband are treated with the formulated test compound in a spray chamber. One day after application wheat plants are inoculated by spraying a spore suspension (10^6 conidia/ml) on the test plants. After an incubation period of 1 day at 22° C./21° C. and 95% r. h. plants are kept at 22° C./21° C. and 70% r.h. in a greenhouse. The disease incidence is assessed 16-18 days after inoculation.

Puccinia recondita = Puccinia recondita / wheat / preventive (action against brown rust on wheat); conditions: 264 h, spray, wheat plants cv. Arina, assessed 11 days after inoculation, read-out: inhibit fungal infestation
Procedure: Puccinia recondita/Wheat/Preventive (Action Against Brown Rust on Wheat) 1 week old wheat plants cv. Arina are treated with the formulated test compound in a spray chamber. One day after application wheat plants are inoculated by spraying a spore suspension ([…] uredospores/ml) on the test plants. After an incubation period of 1 day at 20° C. and 95% r. h. plants are kept for 10 days 20° C./18° C. (day/night) and 60% r.h. in a greenhouse. The disease incidence is assessed 11 days after inoculation.

Measured: inhibition at 200 ppm

Clc1cnc(-n2c(Cl)nc(Cl)c2-c2ccc(Br)cc2)c(Cl)c1 [I.s.034, 2-[5-(4-Bromo-phenyl)-2,4-dichloro-imidazol-1-yl]-3,5-dichloro-pyridine]
not listed: Puccinia recondita
≥ 80%: all other assays above

Cc1nc(Cl)n(-c2ncc(Cl)cc2Cl)c1-c1ccc(Cl)nc1 [I.s.210, 3,5-Dichloro-2-[2-chloro-5-(6-chloro-pyridin-3-yl)-4-methyl-imidazol-1-yl]-pyridine]
≥ 80%: Alternaria solani | Uncinula necator | Septoria tritici

Cc1nc(Cl)n(-c2ncc(Cl)cc2Cl)c1-c1ccc(Br)cc1 [I.s.035, 2-[5-(4-Bromo-phenyl)-2-chloro-4-methyl-imidazol-1-yl]-3,5-dichloro-pyridine]
not listed: Botrytis cinerea
≥ 80%: all other assays above
